# Reference: PMC7402526, “An in vitro quantitative systems pharmacology approach for deconvolving mechanisms of drug-induced, multilineage cytopenias” (PLoS Computational Biology, 2020)
# Columns and labels:
# [1] = test system: multi-potent progenitors (MPPs); assay: MLTA, MPPs: concentration-response and QSP model fit; format: cell-based, human; conditions: Homo sapiens, 144 h
# Method: (§1) A custom optimized cytokine cocktail was developed using commercially available cytokines (Peprotech, New Jersey) to facilitate simultaneous multi-lineage differentiation and self-renewal of freeze-thawed primary human bone marrow-derived CD34+ cells in SFEM II media (cells and media from StemCell Technologies, Vancouver). Cultures were carried out in ultra-low attachment 96-well plates (Corning, New York) with test article added on day 0 and cultured at 37°C, 85% relative humidity, and 5% CO2 for six days before interrogating drug impact via 17-parameter flow cytometry.
# (§2) The flow cytometry panel used to define hematopoietic subsets was composed of CD34-PECy7, CD90-PECY5, CD38-AF488, CD371-PE, CD45Ra-BV421, CD14-BV605, CD42b-AF647, CD10-PEDazzle594, CD235a-PerCPCy5.5 (BioLegend, California), CD15-BUV395, CD41a-APCH7, CD71-BV786 (BD Biosciences, California), and DAPI for dead cell exclusion (ThermoFisher, California). In short, Day 6 cells were harvested, FcR-blocked (FcR binding inhibitor, ThermoFisher), surface-stained, then analyzed in a buffer containing TruCount Control Beads using a BD LSR Fortessa SORP fitted with a high-throughput sampler (BD Biosciences, California). Data was analyzed in Diva 6.0.2 and exported to CSV where after all cell data was transformed to cell per mL then normalized on a per-donor basis to untreated control wells to determine drug impact.
# (§3) Donor material was collected and cultured as described above. The number of replicate donor samples per drug ranged from 2–7 and varied per drug (S1 Table). Drug treatment was added at time 0 and cells were maintained in culture for 6 days. Concentrations tested for each drug compound are contained in S1 Table. Concentrations were selected to span a range that is clinically useful. Following treatment, cell populations were measured using flow cytometry. We extracted cell counts from flow cytometry data, normalized to bead counts, and corrected for well volume.
# (§4) Each well was normalized to the average of six vehicle control wells. For drugs that were tested across multiple runs of the assay, vehicle-normalized donor data were pooled, and we used the average of these pooled data for further modeling. Normalized data used as model inputs are included in S1 Table.
# (§5) We implemented drug effects using an Emax model for the drug’s effect on each cell type. The 13 maximum effect parameters (EmaxT,C) are unitless and can vary between 0 and 2 and where a subscript, C, represents one of the previously described 13 cell types. We adapted a traditional Emax model using the equations below. We interpreted EmaxT values less than or equal to one as anti-proliferative, and EmaxT values greater than one as indicating a cell-killing mechanism in addition to anti-proliferation. The relationships for these effects are included in the model using the following equations. Eq 2 describes the drug anti-proliferative effect in the net proliferation rate for a given cell type. Eq 3 describes the cell-killing EmaxCK effect.
# (§6) Towards the estimation of mechanistic parameters, we considered different formulations: (a) weighting the objective value to prioritize fitting dead cells and (b) using regularization methodology to encourage a parsimonious solution. We assessed the contributions of these formulations using mean-squared error and goodness of fit plots for drugs with known mechanisms. […] Further, we used L1 regularization to penalize parameters […] to help identify a parsimonious set of parameters to explain drug effects.
# [2] = test system: early erythroid cells (Eryth I); assay: MLTA, ErythI: concentration-response and QSP model fit; format: cell-based, human; conditions: Homo sapiens, 144 h
# Method: as §1, §2, §3, §4, §5, §6
# [3] = test system: granulocyte progenitor (Gran-lin prog); assay: MLTA, GranP: concentration-response and QSP model fit; format: cell-based, human; conditions: Homo sapiens, 144 h
# Method: as §1, §2, §3, §4, §5, §6
# [4] = test system: total viable cells (totalViableCells); assay: MLTA, total live cells concentration-response; format: cell-based; conditions: Homo sapiens, 144 h, 6 days, normalized to vehicle control, read-out: total_live normalized cell count
# Method: as §1, §2, §3, §4
# [5] = test system: neutrophils (neutrophil-lin); assay: MLTA, Neut: concentration-response and QSP model fit; format: cell-based, human; conditions: Homo sapiens, Neutrophil, 144 h
# Method: as §1, §2, §3, §4, §5, §6
# [6] = test system: monocyte progenitors (monocyte prog); assay: MLTA, MonoP: concentration-response and QSP model fit; format: cell-based, human; conditions: Homo sapiens, Monocyte, 144 h
# Method: as §1, §2, §3, §4, §5, §6
# [7] = test system: late erythroid cells (Eryth II); assay: MLTA, ErythII: concentration-response and QSP model fit; format: cell-based, human; conditions: Homo sapiens, 144 h
# Method: as §1, §2, §3, §4, §5, §6
smiles,measurement,setting,value
CCN1CCN(Cc2ccc(Nc3ncc(F)c(-c4cc(F)c5nc(C)n(C(C)C)c5c4)n3)nc2)CC1 [abemaciclib],activity at 0.0002 µM,"[1]; dose 0.2 nM, 6 days, normalized to vehicle control, read-out: MPPs normalized cell count",102%
same,activity at 0.001 µM,"[1]; dose 1 nM, 6 days, normalized to vehicle control, read-out: MPPs normalized cell count",98.3%
same,activity at 0.005 µM,"[1]; dose 5 nM, 6 days, normalized to vehicle control, read-out: MPPs normalized cell count",80.3%
same,activity at 0.025 µM,"[1]; dose 25 nM, 6 days, normalized to vehicle control, read-out: MPPs normalized cell count",44.3%
same,activity at 0.1 µM,"[1]; dose 100 nM, 6 days, normalized to vehicle control, read-out: MPPs normalized cell count",24.8%
same,activity at 0.5 µM,"[1]; dose 500 nM, 6 days, normalized to vehicle control, read-out: MPPs normalized cell count",27.6%
same,activity at 2.5 µM,"[1]; dose 2500 nM, 6 days, normalized to vehicle control, read-out: MPPs normalized cell count",3.6%
same,Emax,"[1]; parameter from QSP model fitting, read-out: Emax_drug_MPP",0.16%
same,EC50,"[2]; QSP model fit of 6-day MLTA data, read-out: EC50ErythI",0.0292 µM
same,activity at 0.0002 µM,"[2]; dose 0.2 nM, 6 days, normalized to vehicle control, read-out: ErythI normalized cell count",107%
same,activity at 0.001 µM,"[2]; dose 1 nM, 6 days, normalized to vehicle control, read-out: ErythI normalized cell count",116%
same,activity at 0.005 µM,"[2]; dose 5 nM, 6 days, normalized to vehicle control, read-out: ErythI normalized cell count",97.8%
same,activity at 0.025 µM,"[2]; dose 25 nM, 6 days, normalized to vehicle control, read-out: ErythI normalized cell count",47.1%
same,activity at 0.1 µM,"[2]; dose 100 nM, 6 days, normalized to vehicle control, read-out: ErythI normalized cell count",20.1%
same,activity at 0.5 µM,"[2]; dose 500 nM, 6 days, normalized to vehicle control, read-out: ErythI normalized cell count",4.76%
same,activity at 2.5 µM,"[2]; dose 2500 nM, 6 days, normalized to vehicle control, read-out: ErythI normalized cell count",0.613%
same,Emax,"[2]; parameter from QSP model fitting, read-out: Emax_drug_ErythroidI",102%
same,activity at 0.0002 µM,"[3]; dose 0.2 nM, 6 days, normalized to vehicle control, read-out: GranPs normalized cell count",95.1%
same,activity at 0.001 µM,"[3]; dose 1 nM, 6 days, normalized to vehicle control, read-out: GranPs normalized cell count",100%
same,activity at 0.005 µM,"[3]; dose 5 nM, 6 days, normalized to vehicle control, read-out: GranPs normalized cell count",86.6%
same,activity at 0.025 µM,"[3]; dose 25 nM, 6 days, normalized to vehicle control, read-out: GranPs normalized cell count",52%
same,activity at 0.1 µM,"[3]; dose 100 nM, 6 days, normalized to vehicle control, read-out: GranPs normalized cell count",24.8%
same,activity at 0.5 µM,"[3]; dose 500 nM, 6 days, normalized to vehicle control, read-out: GranPs normalized cell count",2.43%
same,activity at 2.5 µM,"[3]; dose 2500 nM, 6 days, normalized to vehicle control, read-out: GranPs normalized cell count",0.0287%
same,Emax,"[3]; parameter from QSP model fitting, read-out: Emax_drug_GranP",0.23%
same,viability at 0.0002 µM,[4]; dose 0.2 nM,99.1%
same,viability at 0.001 µM,[4]; dose 1 nM,108%
same,viability at 0.005 µM,[4]; dose 5 nM,96%
same,viability at 0.025 µM,[4]; dose 25 nM,47.7%
same,viability at 0.1 µM,[4]; dose 100 nM,17.4%
same,viability at 0.5 µM,[4]; dose 500 nM,3.05%
same,viability at 2.5 µM,[4]; dose 2500 nM,0.301%
same,EC50,[5]; QSP model fit of 6-day MLTA data,0.0662 µM
same,activity at 0.0002 µM,"[5]; dose 0.2 nM, 6 days, normalized to vehicle control, read-out: Neut normalized cell count",99.5%
same,activity at 0.001 µM,"[5]; dose 1 nM, 6 days, normalized to vehicle control, read-out: Neut normalized cell count",100%
same,activity at 0.005 µM,"[5]; dose 5 nM, 6 days, normalized to vehicle control, read-out: Neut normalized cell count",86.7%
same,activity at 0.025 µM,"[5]; dose 25 nM, 6 days, normalized to vehicle control, read-out: Neut normalized cell count",30.8%
same,activity at 0.1 µM,"[5]; dose 100 nM, 6 days, normalized to vehicle control, read-out: Neut normalized cell count",4.02%
same,activity at 0.5 µM,"[5]; dose 500 nM, 6 days, normalized to vehicle control, read-out: Neut normalized cell count",0.252%
same,activity at 2.5 µM,"[5]; dose 2500 nM, 6 days, normalized to vehicle control, read-out: Neut normalized cell count",0.0296%
same,Emax,"[5]; parameter from QSP model fitting, read-out: Emax_drug_Neut",23.5%
same,activity at 0.0002 µM,"[6]; dose 0.2 nM, 6 days, normalized to vehicle control, read-out: MonoPs normalized cell count",98.7%
same,activity at 0.001 µM,"[6]; dose 1 nM, 6 days, normalized to vehicle control, read-out: MonoPs normalized cell count",99.4%
same,activity at 0.005 µM,"[6]; dose 5 nM, 6 days, normalized to vehicle control, read-out: MonoPs normalized cell count",80.6%
same,activity at 0.025 µM,"[6]; dose 25 nM, 6 days, normalized to vehicle control, read-out: MonoPs normalized cell count",27.5%
same,activity at 0.1 µM,"[6]; dose 100 nM, 6 days, normalized to vehicle control, read-out: MonoPs normalized cell count",8.19%
same,activity at 0.5 µM,"[6]; dose 500 nM, 6 days, normalized to vehicle control, read-out: MonoPs normalized cell count",1.58%
same,activity at 2.5 µM,"[6]; dose 2500 nM, 6 days, normalized to vehicle control, read-out: MonoPs normalized cell count",0.0911%
same,Emax,"[6]; parameter from QSP model fitting, read-out: Emax_drug_MonoP",0.17%
same,EC50,"[7]; QSP model fit of 6-day MLTA data, read-out: EC50ErythII",0.0451 µM
same,activity at 0.0002 µM,"[7]; dose 0.2 nM, 6 days, normalized to vehicle control, read-out: ErythII normalized cell count",96.2%
same,activity at 0.001 µM,"[7]; dose 1 nM, 6 days, normalized to vehicle control, read-out: ErythII normalized cell count",112%
same,activity at 0.005 µM,"[7]; dose 5 nM, 6 days, normalized to vehicle control, read-out: ErythII normalized cell count",106%
same,activity at 0.025 µM,"[7]; dose 25 nM, 6 days, normalized to vehicle control, read-out: ErythII normalized cell count",57.9%
same,activity at 0.1 µM,"[7]; dose 100 nM, 6 days, normalized to vehicle control, read-out: ErythII normalized cell count",20.4%
same,activity at 0.5 µM,"[7]; dose 500 nM, 6 days, normalized to vehicle control, read-out: ErythII normalized cell count",1.77%
same,activity at 2.5 µM,"[7]; dose 2500 nM, 6 days, normalized to vehicle control, read-out: ErythII normalized cell count",0.0231%
same,Emax,"[7]; parameter from QSP model fitting, read-out: Emax_drug_ErythroidII",3.33%
